Measurements reported in patent US8067447B2, “Modulators of glucocorticoid receptor, AP-1, and/or NF-κB activity and use thereof” (Bristol-Myers Squibb Company, priority 2006, dated 2011).

Columns and labels:
[1] = tested on: AP-1 induced transcriptional activity; test: Cellular Transrepressional Assay (AP-1 luciferase reporter in A549 cells, PMA-activated); type: cell-based; conditions: Homo sapiens, A549, 7 h, A549 cells with 7x AP-1 luciferase reporter, 10 ng/ml PMA, read-out: AP-1 (EC50, nM) (Cellular Transrepression Assay)
Outline: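 Test molecules spanning 0.1 nM to 40 μM were co-incubated 7 h with 10 ng/ml PMA in A549 cells stably carrying a 7× AP-1-driven luciferase plasmid. Repression, as % reduction of PMA-alone luminescence measured 10 min after reagent addition, was curve-fitted to give EC50s.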

[2] = biological target: T1, human full-length glucocorticoid receptor (Homo sapiens, UniProt P04150); test: Glucocorticoid Receptor Binding Assay (II), fluorescence polarization competitor kit (Fluormone GS1); conditions: cell lysate with recombinant human full-length GR, 1 nM Fluormone GS1, FP
T1 construct: a cell lysate containing recombinantly expressed human full-length glucocorticoid receptor; purchased PanVera Co., Madison, Wis; P2816
T1 sequence (P04150 1-777): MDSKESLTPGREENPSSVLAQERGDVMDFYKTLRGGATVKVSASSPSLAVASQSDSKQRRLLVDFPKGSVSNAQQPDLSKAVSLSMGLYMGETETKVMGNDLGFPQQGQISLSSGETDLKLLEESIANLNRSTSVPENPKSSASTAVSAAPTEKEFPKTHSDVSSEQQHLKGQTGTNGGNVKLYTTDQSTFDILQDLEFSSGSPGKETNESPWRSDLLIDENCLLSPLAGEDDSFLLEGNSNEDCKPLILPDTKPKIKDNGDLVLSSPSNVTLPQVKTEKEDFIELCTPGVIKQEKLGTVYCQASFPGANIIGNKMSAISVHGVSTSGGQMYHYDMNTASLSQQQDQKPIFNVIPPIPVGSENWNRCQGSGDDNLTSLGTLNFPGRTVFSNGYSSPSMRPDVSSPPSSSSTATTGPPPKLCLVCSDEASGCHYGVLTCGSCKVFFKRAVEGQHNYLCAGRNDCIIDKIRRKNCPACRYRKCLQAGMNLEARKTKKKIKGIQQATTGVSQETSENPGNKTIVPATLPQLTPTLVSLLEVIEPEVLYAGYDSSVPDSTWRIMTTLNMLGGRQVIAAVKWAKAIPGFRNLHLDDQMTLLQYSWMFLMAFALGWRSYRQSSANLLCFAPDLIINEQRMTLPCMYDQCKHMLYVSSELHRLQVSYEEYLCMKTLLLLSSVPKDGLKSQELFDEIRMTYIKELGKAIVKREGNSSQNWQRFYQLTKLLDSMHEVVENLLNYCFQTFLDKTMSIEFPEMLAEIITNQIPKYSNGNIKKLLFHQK
Outline: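 Recombinant full-length human GR in cell lysate competed against 1 nM fluorescent glucocorticoid tracer (Fluormone GS1) with or without test compound. Fluorescence polarization read after 1 h at room temperature.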

| SMILES | EC50 [1] [nM] | Ki [2] [nM] |
| --- | --- | --- |
| CC(C)(C(=O)Nc1nncs1)C(OCc1ccccc1)c1ccc2c(cnn2-c2ccc(F)cc2)c1 (stereo not drawn) [Example 140, 3-(Benzyloxy)-3-(1-(4-fluorophenyl)-1H-indazol-5-yl)-2,2-dimethyl-N-(1,3,4-thiadiazol-2-yl)propanamide] | 4 | 1.6 |
| CC(C)(C(=O)NC1CCC1)C(Cc1ccccc1)c1ccc2c(cnn2-c2ccc(F)cc2)c1 (stereo not drawn) [Example 129, N-cyclobutyl-3-(1-(4-fluorophenyl)-1H-indazol-5-yl)-2,2-dimethyl-4-phenylbutanamide] | 106 | 0.87 |
| CC(C)(C(=O)Nc1nccs1)C(C)(C)c1ccc2c(cnn2-c2ccc(F)cc2)c1 [Example 113, 3-(1-(4-Fluorophenyl)-1H-indazol-5-yl)-2,2,3-trimethyl-N-(thiazol-2-yl)butanamide] | 107 | 5.1 |
